Assay [1] addresses Human μ-opioid receptor (Homo sapiens, UniProt P35372). Description: biochemical. The assay is classed as binding.
The target of assay [2] is Human α2δ-1 subunit of Cav2.2 calcium channel (Homo sapiens, UniProt P54289). Kind of assay: biochemical. Format: binding.

Read-outs that look alike come from different tables or passages of the source.

Results on 33 molecules are retold here after patent US20220002314A1 (priority 2018, published 2022).

Sequence of Human α2δ-1 subunit of Cav2.2 calcium channel (P54289 25-1103): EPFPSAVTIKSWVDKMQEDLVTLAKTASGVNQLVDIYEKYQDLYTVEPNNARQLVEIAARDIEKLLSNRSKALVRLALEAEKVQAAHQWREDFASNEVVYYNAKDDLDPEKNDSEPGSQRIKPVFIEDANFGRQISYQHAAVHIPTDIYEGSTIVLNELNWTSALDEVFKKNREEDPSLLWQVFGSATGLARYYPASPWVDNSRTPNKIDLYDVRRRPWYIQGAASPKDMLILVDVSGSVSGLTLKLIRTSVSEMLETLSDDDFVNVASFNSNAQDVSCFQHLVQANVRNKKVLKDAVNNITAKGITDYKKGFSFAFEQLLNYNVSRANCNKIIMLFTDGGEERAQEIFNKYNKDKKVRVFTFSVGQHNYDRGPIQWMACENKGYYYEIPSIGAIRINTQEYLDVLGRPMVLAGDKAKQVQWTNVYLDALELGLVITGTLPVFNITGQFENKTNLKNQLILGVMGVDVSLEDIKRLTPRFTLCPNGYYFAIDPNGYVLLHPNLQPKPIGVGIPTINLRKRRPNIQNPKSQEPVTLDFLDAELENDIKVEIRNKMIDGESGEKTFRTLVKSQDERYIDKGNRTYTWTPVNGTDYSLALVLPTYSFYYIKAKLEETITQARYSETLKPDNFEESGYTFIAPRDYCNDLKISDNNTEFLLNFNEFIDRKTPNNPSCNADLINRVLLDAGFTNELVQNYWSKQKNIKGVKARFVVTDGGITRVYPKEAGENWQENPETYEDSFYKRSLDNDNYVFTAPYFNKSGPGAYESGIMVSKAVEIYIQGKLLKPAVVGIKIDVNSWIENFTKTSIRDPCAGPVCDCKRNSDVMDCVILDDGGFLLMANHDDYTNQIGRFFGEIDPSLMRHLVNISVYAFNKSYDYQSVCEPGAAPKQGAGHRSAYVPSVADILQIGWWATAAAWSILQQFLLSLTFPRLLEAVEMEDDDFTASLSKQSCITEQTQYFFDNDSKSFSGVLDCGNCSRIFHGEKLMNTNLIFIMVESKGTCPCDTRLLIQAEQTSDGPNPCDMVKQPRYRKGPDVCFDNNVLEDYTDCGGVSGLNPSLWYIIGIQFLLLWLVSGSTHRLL
Sequence of Human μ-opioid receptor (P35372 whole entry): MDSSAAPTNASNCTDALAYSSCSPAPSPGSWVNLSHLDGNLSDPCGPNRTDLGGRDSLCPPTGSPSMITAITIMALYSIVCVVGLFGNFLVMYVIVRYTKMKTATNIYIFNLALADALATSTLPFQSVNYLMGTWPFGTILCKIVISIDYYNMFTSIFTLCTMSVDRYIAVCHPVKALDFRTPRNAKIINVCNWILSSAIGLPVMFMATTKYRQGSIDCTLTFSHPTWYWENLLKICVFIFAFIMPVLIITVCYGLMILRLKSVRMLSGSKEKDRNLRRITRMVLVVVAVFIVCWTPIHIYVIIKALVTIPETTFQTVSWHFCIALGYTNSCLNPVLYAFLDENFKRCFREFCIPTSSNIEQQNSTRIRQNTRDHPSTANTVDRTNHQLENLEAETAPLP

`CCC[C@H](c1nc2ccc(O)cc2c(=O)n1CC)N1C[C@@H](C)N[C@@H](C)C1` [Example 35, 2-((R)-1-((3S,5R)-3,5-Dimethylpiperazin-1-yl)butyl)-3-ethyl-6-hydroxyquinazolin-4(3H)-one]: the results for the Ki in assay [1] and in assay [2] were above 500 nM and below 500 nM, respectively.

As to `CCC[C@@H](c1nc2ccc(O)cc2c(=O)n1CC)N1C[C@@H](C)N[C@@H](C)C1` [Example 36, 2-((S)-1-((3S,5R)-3,5-dimethylpiperazin-1-yl)butyl)-3-ethyl-6-hydroxyquinazolin-4(3H)-one], the Ki in assay [1] is above 500 nM; in assay [2] it was 500 to 5000 nM.

Turning to `CCC[C@@H](c1nc2c(F)cc(OC)cc2c(=O)n1CC)N1CCNCC1` [Example 37, (S)-3-Ethyl-8-fluoro-6-methoxy-2-(1-(piperazin-1-yl)butyl)quinazolin-4(3H)-one], the results for the Ki in assay [1] and in assay [2] were above 500 nM and above 5000 nM, respectively.

Consider `CCC[C@H](c1nc2c(F)cc(OC)cc2c(=O)n1CC)N1CCNCC1` [Example 38, (R)-3-ethyl-8-fluoro-6-methoxy-2-(1-(piperazin-1-yl)butyl)quinazolin-4(3H)-one], for which the figures for the Ki in assay [1] and in assay [2] were 100 to 500 nM and below 500 nM, respectively.

`CCC[C@@H](c1nc2c(F)cc(OC)c(Br)c2c(=O)n1CC)N1CCNCC1` [Example 39, (S)-5-Bromo-3-ethyl-8-fluoro-6-methoxy-2-(1-(piperazin-1-yl)butyl)quinazolin-4(3H)-one]: the results for the Ki in assay [1] (read-out: μ-binding) and in assay [2] (read-out: α2δ-1 binding) were above 500 nM and above 5000 nM, respectively.

On to `CCC[C@H](c1nc2c(F)cc(OC)c(Br)c2c(=O)n1CC)N1CCNCC1` [Example 40, (R)-5-bromo-3-ethyl-8-fluoro-6-methoxy-2-(1-(piperazin-1-yl)butyl)quinazolin-4(3H)-one], for which the Ki in assay [1] (read-out: μ-binding) was above 500 nM; in assay [2] (read-out: α2δ-1 binding), 500 to 5000 nM.

Turning to `CCC[C@H](c1nc2ccc(Br)cc2c(=O)n1C)N1CCN[C@@H](C)C1` [Example 41, 6-Bromo-3-methyl-2-((R)-1-((S)-3-methylpiperazin-1-yl)butyl)quinazolin-4(3H)-one], the Ki in assay [1] was 100 to 500 nM; in assay [2], below 500 nM.

With `CCC[C@@H](c1nc2ccc(Br)cc2c(=O)n1C)N1CCN[C@@H](C)C1` [Example 42, 6-bromo-3-methyl-2-((S)-1-((S)-3-methylpiperazin-1-yl)butyl)quinazolin-4(3H)-one], the Ki is above 500 nM in assay [1] and above 5000 nM in assay [2].

In the case of `CCC[C@H](c1nc2ccccc2c(=O)n1CC)N1CCN[C@@H](C)C1` [Example 43, 3-Ethyl-2-((R)-1-((S)-3-methylpiperazin-1-yl)butyl)quinazolin-4(3H)-one], the Ki in assay [1] is above 500 nM; in assay [2], below 500 nM.

Regarding `CCC[C@@H](c1nc2ccccc2c(=O)n1CC)N1CCN[C@@H](C)C1` [Example 44, 3-ethyl-2-((S)-1-((S)-3-methylpiperazin-1-yl)butyl)quinazolin-4(3H)-one], the Ki is above 500 nM in assay [1] and above 5000 nM in assay [2].

As to `CCC[C@@H](c1nc2c(F)cc(OC)cc2c(=O)n1CC)N1CCN[C@@H](C)C1` [Example 45, 3-Ethyl-8-fluoro-6-methoxy-2-((S)-1-((S)-3-methylpiperazin-1-yl)butyl)quinazolin-4(3H)-one], the Ki in assay [1] was above 500 nM; in assay [2] it was above 5000 nM.

Regarding `CCC[C@H](c1nc2c(F)cc(OC)cc2c(=O)n1CC)N1CCN[C@@H](C)C1` [Example 46, 3-ethyl-8-fluoro-6-methoxy-2-((R)-1-((S)-3-methylpiperazin-1-yl)butyl)quinazolin-4(3H)-one], the Ki in assay [1] is 100 to 500 nM; in assay [2] it was below 500 nM.

In the case of `CCC[C@H](c1nc2c(F)cc(Br)cc2c(=O)n1CC)N1CCN[C@H](C)C1` [Example 47, 6-Bromo-3-ethyl-8-fluoro-2-((R)-1-((R)-3-methylpiperazin-1-yl)butyl)quinazolin-4(3H)-one], the Ki in assay [1] is above 500 nM; in assay [2], below 500 nM.

For the molecule `CCC[C@@H](c1nc2c(F)cc(Br)cc2c(=O)n1CC)N1CCN[C@H](C)C1` [Example 48, 6-bromo-3-ethyl-8-fluoro-2-((S)-1-((R)-3-methylpiperazin-1-yl)butyl)quinazolin-4(3H)-one], the Ki in assay [1] was above 500 nM; in assay [2], above 5000 nM.

For the molecule `CCC[C@H](c1nc2cc(Cl)c(Cl)cc2c(=O)n1CC)N1CCN[C@@H](C)C1` [Example 49, 6,7-Dichloro-3-ethyl-2-((R)-1-((S)-3-methylpiperazin-1-yl)butyl)quinazolin-4(3H)-one], the Ki in assay [1] is 100 to 500 nM; in assay [2] it was below 500 nM.

As to `CCC[C@@H](c1nc2cc(Cl)c(Cl)cc2c(=O)n1CC)N1CCN[C@@H](C)C1` [Example 50, 6,7-dichloro-3-ethyl-2-((S)-1-((S)-3-methylpiperazin-1-yl)butyl)quinazolin-4(3H)-one], the values for the Ki in assay [1] and in assay [2] were above 500 nM and above 5000 nM, respectively.

With `CCC[C@H](c1nc2c(F)cc(Br)cc2c(=O)n1CC)N1CCN[C@@H](C)C1` [Example 51, 6-Bromo-3-ethyl-8-fluoro-2-((R)-1-((S)-3-methylpiperazin-1-yl)butyl)quinazolin-4(3H)-one], the Ki in assay [1] is 100 to 500 nM; in assay [2], below 500 nM.

As to `CCC[C@@H](c1nc2c(F)cc(Br)cc2c(=O)n1CC)N1CCN[C@@H](C)C1` [Example 52, 6-bromo-3-ethyl-8-fluoro-2-((S)-1-((S)-3-methylpiperazin-1-yl)butyl)quinazolin-4(3H)-one], the Ki is above 500 nM in assay [1] and above 5000 nM in assay [2].

Take `CCC[C@H](c1nc2cc(F)c(Cl)cc2c(=O)n1CC)N1CCN[C@@H](C)C1` [Example 53, 6-Chloro-3-ethyl-7-fluoro-2-((R)-1-((S)-3-methylpiperazin-1-yl)butyl)quinazolin-4(3H)-one]: the Ki in assay [1] was 100 to 500 nM; in assay [2], below 500 nM.

On to `CCC[C@@H](c1nc2cc(F)c(Cl)cc2c(=O)n1CC)N1CCN[C@@H](C)C1` [Example 54, 6-chloro-3-ethyl-7-fluoro-2-((S)-1-((S)-3-methylpiperazin-1-yl)butyl)quinazolin-4(3H)-one], for which the Ki in assay [1] is above 500 nM; in assay [2], above 5000 nM.

`CCC[C@H](c1nc2ccc(Br)cc2c(=O)n1CC)N1CCN[C@H](CF)C1` [Example 55, 6-Bromo-3-ethyl-2-((R)-1-((S)-3-(fluoromethyl)piperazin-1-yl)butyl)quinazolin-4(3H)-one]: the Ki is above 500 nM in assay [1] and below 500 nM in assay [2].

In the case of `CCC[C@@H](c1nc2ccc(Br)cc2c(=O)n1CC)N1CCN[C@@H](CF)C1` [Example 56, 6-bromo-3-ethyl-2-((S)-1-((R)-3-(fluoromethyl)piperazin-1-yl)butyl)quinazolin-4(3H)-one], the values for the Ki in assay [1] and in assay [2] were above 500 nM and above 5000 nM, respectively.

For the molecule `CCC[C@@H](c1nc2ccc(Br)cc2c(=O)n1CC)N1CCN[C@H](CF)C1` [Example 57, 6-bromo-3-ethyl-2-((S)-1-((S)-3-(fluoromethyl)piperazin-1-yl)butyl)quinazolin-4(3H)-one], the Ki in assay [1] was above 500 nM; in assay [2], below 500 nM.

On to `CCC[C@H](c1nc2ccc(Br)cc2c(=O)n1CC)N1CCN[C@H](CO)C1` [Example 58, 6-Bromo-3-ethyl-2-((R)-1-((S)-3-(hydroxymethyl)piperazin-1-yl)butyl)quinazolin-4(3H)-one], for which the values for the Ki in assay [1] and in assay [2] were above 500 nM and below 500 nM, respectively.

For `CCC[C@@H](c1nc2ccc(Br)cc2c(=O)n1CC)N1CCN[C@H](CO)C1` [Example 59, 6-bromo-3-ethyl-2-((S)-1-((S)-3-(hydroxymethyl)piperazin-1-yl)butyl)quinazolin-4(3H)-one], the Ki in assay [1] is above 500 nM; in assay [2], above 5000 nM.

Regarding `CCC[C@H](c1nc2ccc(Br)cc2c(=O)n1CC)N1CCN[C@@H](CO)C1` [Example 60, 6-bromo-3-ethyl-2-((R)-1-((R)-3-(hydroxymethyl)piperazin-1-yl)butyl)quinazolin-4(3H)-one], the values for the Ki in assay [1] and in assay [2] were above 500 nM and below 500 nM, respectively.

In the case of `CCC[C@@H](c1nc2ccc(Br)cc2c(=O)n1CC)N1CCN[C@@H](CO)C1` [Example 61, 6-bromo-3-ethyl-2-((S)-1-((R)-3-(hydroxymethyl)piperazin-1-yl)butyl)quinazolin-4(3H)-one], the Ki in assay [1] was above 500 nM; in assay [2] it was above 5000 nM.

Take `CCC[C@H](c1nc2cc(F)c(Br)cc2c(=O)n1C)N1CCN[C@@H](C)C1` [Example 62, 6-Bromo-7-fluoro-3-methyl-2-((R)-1-((S)-3-methylpiperazin-1-yl)butyl)quinazolin-4(3H)-one]: the results for the Ki in assay [1] and in assay [2] were 100 to 500 nM and below 500 nM, respectively.

Regarding `CCC[C@@H](c1nc2cc(F)c(Br)cc2c(=O)n1C)N1CCN[C@@H](C)C1` [Example 63, 6-bromo-7-fluoro-3-methyl-2-((S)-1-((S)-3-methylpiperazin-1-yl)butyl)quinazolin-4(3H)-one], the values for the Ki in assay [1] and in assay [2] were above 500 nM and above 5000 nM, respectively.

With `CCC[C@H](c1nc2ccncc2c(=O)n1CC)N1CCN[C@H](C)C1` [Example 64, 3-Ethyl-2-((R)-1-((R)-3-methylpiperazin-1-yl)butyl)pyrido[4,3-d]pyrimidin-4(3H)-one], the figures for the Ki in assay [1] and in assay [2] were above 500 nM and below 500 nM, respectively.

Turning to `CCC[C@@H](c1nc2ccncc2c(=O)n1CC)N1CCN[C@H](C)C1` [Example 65, 3-ethyl-2-((S)-1-((R)-3-methylpiperazin-1-yl)butyl)pyrido[4,3-d]pyrimidin-4(3H)-one], the Ki in assay [1] was above 500 nM; in assay [2] it was above 5000 nM.

Take `CCC[C@H](c1nc2ccncc2c(=O)n1CC)N1CCN[C@@H](C)C1` [Example 66, 3-Ethyl-2-((R)-1-((S)-3-methylpiperazin-1-yl)butyl)pyrido[4,3-d]pyrimidin-4(3H)-one]: the figures for the Ki in assay [1] and in assay [2] were above 500 nM and below 500 nM, respectively.

Take `CCC[C@@H](c1nc2ccncc2c(=O)n1CC)N1CCN[C@@H](C)C1` [Example 67, 3-ethyl-2-((S)-1-((S)-3-methylpiperazin-1-yl)butyl)pyrido[4,3-d]pyrimidin-4(3H)-one]: the Ki in assay [1] is above 500 nM; in assay [2], above 5000 nM.
